Measurements from BindingDB's records for doi:10.1021/acsmedchemlett.0c00626 (Pipeline Therapeutics, 2021).

Molecular target: T1, Muscarinic acetylcholine receptor M1 (Homo sapiens, UniProt P11229)
T1 sequence (P11229 whole entry): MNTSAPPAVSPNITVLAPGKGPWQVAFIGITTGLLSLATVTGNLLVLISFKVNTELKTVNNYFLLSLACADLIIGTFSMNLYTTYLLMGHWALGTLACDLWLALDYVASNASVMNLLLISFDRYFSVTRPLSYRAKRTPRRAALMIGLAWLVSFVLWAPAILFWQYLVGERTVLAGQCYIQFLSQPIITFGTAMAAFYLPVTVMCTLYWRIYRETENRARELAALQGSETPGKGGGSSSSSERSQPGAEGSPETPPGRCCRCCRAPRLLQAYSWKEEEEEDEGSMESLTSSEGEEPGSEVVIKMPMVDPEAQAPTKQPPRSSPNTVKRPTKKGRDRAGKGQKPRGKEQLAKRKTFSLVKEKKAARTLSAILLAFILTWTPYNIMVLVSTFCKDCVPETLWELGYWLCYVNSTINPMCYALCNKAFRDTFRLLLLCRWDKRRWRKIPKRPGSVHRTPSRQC
Test: Antagonist activity at human recombinant muscarinic receptor M1 expressed in CHO-K1 cells assessed as EC80 acetylcholine-induced calcium flux incubated for 30 mins

Row | Compound | IC50
1 | N#Cc1ccc(N2C3CCC2CN(C(=O)CCS(=O)(=O)c2cccc4ncsc24)C3)nc1 | 1.6 nM
2 | N#Cc1ccc(N2CC3CCC2CN3C(=O)CCS(=O)(=O)c2cccc3ncsc23)nc1 (stereo not given) | 32 nM
3 | Cc1cc(F)cnc1N1CCN(C(=O)CCS(=O)(=O)c2cccc3ncsc23)[C@@H](C)C1 | 79.4 nM

More lines, in order of falling IC50, values ahead:

Row | IC50 | Compound
4 | 3980 nM | Cc1cc(F)cnc1N1CCN(C(=O)COCc2cccc3ncsc23)[C@@H](C)C1
5 | 1250 nM | N#Cc1cnccc1N1CCN(C(=O)CCCc2cccc3ncccc23)CC1
